Experiments:
Botrytis cinerea = test: Direct protectant activity against broad bean grey mould (BCB); assay type: in vivo; details: direct protectant foliar spray, 600 ppm, 4 days
Outline: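 Broad bean plants (cv The Sutton, two leaf pairs) sprayed on upper leaf surfaces at 600 ppm, then inoculated 24 h later with 10^6 conidia/ml. Kept 4 days at 22 °C, high humidity; disease control rated from % leaf area with lesions against untreated or diluent controls.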

Alternaria solani = test: Activity against tomato early blight (AS); assay type: in vivo; details: Table VI; tomato seedlings, contact prophylactic foliar spray, 4 days
Outline: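 Foliar contact prophylactic spray on tomato seedlings (cv Outdoor Girl, second true leaf expanded) in acetone/water 50:50 with 0.04% Tween 20; 24 h at 20° C, 40% R.H., then inoculation with 10^4 spores/ml A. solani conidia. Kept moist at 21° C; lesion cover rated 4 days post-inoculation against untreated or diluent-sprayed controls.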

Rhizoctonia solani = test: Activity against Rhizoctonia in-vitro (RSI); assay type: cell-based; details: 10 ppm, 10 days, 20° C., mycelial growth
Outline: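 R. solani mycelial fragments (5×10^4/ml) in half-strength Potato Dextrose Broth with compound added from acetone to 10 ppm final. Mycelial growth assessed after 10 days at 20° C, rated against untreated or diluent control.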

Plasmopara viticola = test: Antisporulant activity against vine downy mildew (PVA); assay type: in vivo; details: vine leaves, antisporulant foliar spray, 600 ppm, 750 l/ha
Outline: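 Cabernet Sauvignon vines (~8 cm) inoculated on lower leaf surfaces with 5×10^4 zoosporangia/ml, held 24 h at 21° C high humidity then 24 h glasshouse. Infected leaves sprayed underside with 600 ppm compound in 1:1 water/acetone, 0.04% Tween 20, 750 l/ha; 96 h glasshouse, 24 h humidity. Sporulating leaf area rated versus control.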

Leptosphaeria nodorum = test: Activity against wheat leafspot (LN); assay type: in vivo; details: direct therapeutic foliar spray, 600 ppm, 6-8 days
Outline: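 Wheat cv Norman at single-leaf stage spray-inoculated with 1.5×10^6 conidia/ml, held 24 h at high humidity, then sprayed therapeutically with test compound at 600 ppm. Kept 6-8 days at 22° C, 70% humidity; lesion density per leaf rated against untreated or diluent-sprayed controls.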

Venturia inaequalis = test: Activity against apple scab in-vitro (VII); assay type: cell-based; details: 10 ppm, 10 days, 20° C., mycelial growth
Outline: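 Compound in acetone was tested at 10 ppm final in half-strength Potato Dextrose Broth inoculated with V. inaequalis mycelial fragments and spores at 5×10^4 propagules/ml. After 10 days at 20° C, mycelial growth was rated against untreated or diluent controls.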

Phytophthora infestans = assay type: in vivo; details: tomato, direct protectant foliar spray
Pyricularia oryzae = assay type: in vivo; details: rice seedlings, direct therapeutic foliar spray, 600 ppm, 4-5 days
[1] = test system: Erysiphe graminis f.sp. hordei; test: Activity against barley powdery mildew, direct therapeutic (EGT); assay type: in vivo; details: direct therapeutic foliar spray, 600 ppm, up to 7 days
Outline: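 Barley seedlings (cv. Golden Promise, single-leaf stage) were dusted with mildew conidia one day before a therapeutic foliar spray of 600 ppm compound. Plants were kept at 18 °C and 40% humidity for up to 7 days, and sporulating leaf area was rated against untreated or diluent-sprayed controls.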

[2] = test system: Erysiphe graminis f.sp. hordei; test: Direct protectant activity against barley powdery mildew (EGP); assay type: in vivo; details: direct protectant foliar spray, 8 days
Outline: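 Barley seedlings (cv Golden Promise, single-leaf stage) were foliar-sprayed, held 24 h at 18 °C/40% RH, then dusted with mildew conidia. After 8 days at 18 °C/40% RH, sporulating leaf area was scored as a rating against untreated or diluent-sprayed controls.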

[3] = test system: Pseudocercosporella herpotrichoides; test: Activity against wheat eyespot in-vitro (PHI); assay type: cell-based; details: 10 ppm, 10 days, 20° C., mycelial growth
Outline: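 P. herpotrichoides mycelial fragments (5×10^4/ml) grown in half-strength PDB with compound at 10 ppm final, added from acetone. Incubated 10 days at 20 °C; mycelial growth rated against untreated or diluent controls.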

| Structure (SMILES) | disease control rating BCB (Botrytis cinerea) | disease control rating AS (Alternaria solani) | disease control rating RSI (Rhizoctonia solani) | disease control rating PVA (Plasmopara viticola) | disease control rating LN (Leptosphaeria nodorum) | disease control rating VII (Venturia inaequalis) | disease control rating PIP (Phytophthora infestans) | disease control rating PO (Pyricularia oryzae) | disease control rating EGT [1] | disease control rating EGP [2] | disease control rating PHI [3] |
| --- | --- | --- | --- | --- | --- | --- | --- | --- | --- | --- | --- |
| CCCCCCN(C)C1COC2(CCC(C(C)(C)CC)CC2)C1 (stereo not shown) [Compound 60] | 0 (less than 50% disease control) | 0 (less than 50% disease control) | 2 (greater than 80% disease control) | 0 (less than 50% disease control) | 1 (about 50-80% disease control) | 1 (about 50-80% disease control) | 0 (less than 50% disease control) | 0 (less than 50% disease control) | 2 (greater than 80% disease control) | 2 (greater than 80% disease control) | 0 (less than 50% disease control) |
| CCCCCCN(C)C1COC2(CCC(c3ccccc3)CC2)C1 (stereo not shown) [Compound 61] | 0 (less than 50% disease control) | 0 (less than 50% disease control) | 0 (less than 50% disease control) | 0 (less than 50% disease control) | 1 (about 50-80% disease control) | 1 (about 50-80% disease control) | 0 (less than 50% disease control) | 0 (less than 50% disease control) | 2 (greater than 80% disease control) | 2 (greater than 80% disease control) | 2 (greater than 80% disease control) |
| CCCNC1COC2(CCC(C(C)(C)C)CC2)C1 (stereo not shown) [Compound 62] | 1 (about 50-80% disease control) | 0 (less than 50% disease control) | 0 (less than 50% disease control) | 0 (less than 50% disease control) | 0 (less than 50% disease control) | 0 (less than 50% disease control) | 0 (less than 50% disease control) | 0 (less than 50% disease control) | 2 (greater than 80% disease control) | 2 (greater than 80% disease control) | 0 (less than 50% disease control) |
| CC(C)NC1COC2(CCC(C(C)(C)C)CC2)C1 (stereo not shown) [Compound 63] | 0 (less than 50% disease control) | 0 (less than 50% disease control) | 0 (less than 50% disease control) | 0 (less than 50% disease control) | 0 (less than 50% disease control) | 0 (less than 50% disease control) | 0 (less than 50% disease control) | 0 (less than 50% disease control) | 2 (greater than 80% disease control) | 2 (greater than 80% disease control) | 0 (less than 50% disease control) |
| CCCCNC1COC2(CCC(C(C)(C)C)CC2)C1 (stereo not shown) [Compound 64] | 2 (greater than 80% disease control) | 0 (less than 50% disease control) | 0 (less than 50% disease control) | 0 (less than 50% disease control) | 0 (less than 50% disease control) | 0 (less than 50% disease control) | 2 (greater than 80% disease control) | 0 (less than 50% disease control) | 2 (greater than 80% disease control) | 2 (greater than 80% disease control) | 0 (less than 50% disease control) |
| CCC(C)NC1COC2(CCC(C(C)(C)C)CC2)C1 (stereo not shown) [Compound 65] | 2 (greater than 80% disease control) | 0 (less than 50% disease control) | 0 (less than 50% disease control) | 0 (less than 50% disease control) | 0 (less than 50% disease control) | 0 (less than 50% disease control) | 0 (less than 50% disease control) | 0 (less than 50% disease control) | 2 (greater than 80% disease control) | 2 (greater than 80% disease control) | 0 (less than 50% disease control) |
| CC(C)CNC1COC2(CCC(C(C)(C)C)CC2)C1 (stereo not shown) [Compound 66] | 2 (greater than 80% disease control) | 0 (less than 50% disease control) | 0 (less than 50% disease control) | 0 (less than 50% disease control) | 0 (less than 50% disease control) | 0 (less than 50% disease control) | 0 (less than 50% disease control) | 0 (less than 50% disease control) | 2 (greater than 80% disease control) | 2 (greater than 80% disease control) | 0 (less than 50% disease control) |
| CN(C)C1COC2(CCC(C(C)(C)C)CC2)C1 (stereo not shown) [Compound 67] | 0 (less than 50% disease control) | 0 (less than 50% disease control) | 0 (less than 50% disease control) | 0 (less than 50% disease control) | 1 (about 50-80% disease control) | 0 (less than 50% disease control) | 2 (greater than 80% disease control) | 1 (about 50-80% disease control) | 2 (greater than 80% disease control) | 2 (greater than 80% disease control) | 0 (less than 50% disease control) |

From patent publication US5591741A, “Fungicidal spiroheterocyclic derivatives” (American Cyanamid Company, priority 1993, dated 1997)
